Measurements published in patent US20160193165A1, “NOVEL POLYMORPHS AND SALTS” (CHIESI FARMACEUTICI S.p.A., priority 2010, published 2016).

Columns and labels:
[1] = Stability of salts on storage at room temperature and 80% relative humidity (XRPD); format: physicochemical; settings: for changes in the XRPD pattern after storage: 7 days at room temperature and 80% relative humidity
Description: Each of the salts obtained was characterized by X-ray powder diffraction (XRPD), Thermogravimetric analysis (TGA), and Differential Scanning calorimetry (DSC). Furthermore, the stabilities of the sodium, potassium, L-Arginine and L-Lysine salts were tested by storage for 7 days at room temperature and 80% relative humidity.

[2] = Thermodynamic solubility of salts in water; format: physicochemical; settings: for Solubility: 37° C., pH 6.8-7.4, stirring 500 rpm, 24 hours
Description: Each of the sodium, potassium, L-Arg and L-Lys salts prepared as described above was dissolved in water at a temperature of 37° C., pH 6.8-7.4 at a stirring rate of 500 rpm for 24 hours.

Row | changes in the XRPD pattern after storage [1] | stability when stored under conditions of high humidity (in words) [1] | solubility in water (in words) [2] | Solubility [2] [mg/mL] | SMILES
1 | No changes | good stability | excellent solubility | 20.4 | O=C(O)C1(c2ccc(-c3ccc(Cl)c(Cl)c3)c(F)c2)CC1 [Sodium, 1-(3′,4′-dichloro-2-fluorobiphenyl-4-yl)cyclopropanecarboxylic acid]
2 | No changes | good stability | excellent solubility | 6.3 | O=C(O)C1(c2ccc(-c3ccc(Cl)c(Cl)c3)c(F)c2)CC1 [Potassium, 1-(3′,4′-dichloro-2-fluorobiphenyl-4-yl)cyclopropanecarboxylic acid]
3 | No changes | good stability | excellent solubility | 15.2 | O=C(O)C1(c2ccc(-c3ccc(Cl)c(Cl)c3)c(F)c2)CC1 [L-Arginine, 1-(3′,4′-dichloro-2-fluorobiphenyl-4-yl)cyclopropanecarboxylic acid]
4 | No changes | good stability | excellent solubility | 36.6 | O=C(O)C1(c2ccc(-c3ccc(Cl)c(Cl)c3)c(F)c2)CC1 [L-Lysine, 1-(3′,4′-dichloro-2-fluorobiphenyl-4-yl)cyclopropanecarboxylic acid]
